Experimental data taken from US12428400B2 (priority 2020, dated 2025).
Read-outs that look alike come from different tables or passages of the source.

System: pathogens of rice blast
Format: cell-based
Details: 25° C., 7 days, elongation length of hyphae

## COc1nc2nc3ccccc3n2c(F)c1C(F)(F)F [Example 4, 4-fluoro-2-methoxy-3-(trifluoromethyl)benzo[4,5]imidazo[1,2-a]pyrimidine]
Test solution 1000 ppm, 1,000 μl on oatmeal culture medium
  Control value: 66
Test solution 2000 ppm, 1,000 μl on oatmeal culture medium
  Control value: 96
